Measured values taken from ChEMBL document CHEMBL4138123, “Design, synthesis and biological evaluation of novel pyrazolochalcones as potential modulators of PI3K/Akt/mTOR pathway and inducers of apoptosis in breast cancer cells” (Eur J Med Chem, 2017).

Columns and labels:
Type in all cases: functional
[1] = test system: HT-29; experiment: Cytotoxicity against human HT-29 cells assessed as growth inhibition after 48 hrs by sulforhodamine B assay; conditions: HT-29, 48 h
[2] = test system: SF-268; experiment: Cytotoxicity against human SF268 cells assessed as growth inhibition after 48 hrs by sulforhodamine B assay; conditions: SF-268, 48 h
[3] = test system: LOX IMVI; experiment: Cytotoxicity against human LOXIMVI cells assessed as growth inhibition after 48 hrs by sulforhodamine B assay
[4] = test system: IGROV-1; experiment: Cytotoxicity against human IGROV1 cells assessed as growth inhibition after 48 hrs by sulforhodamine B assay; conditions: IGROV-1, 48 h
[5] = test system: OVCAR-3; experiment: Cytotoxicity against human OVCAR3 cells assessed as growth inhibition after 48 hrs by sulforhodamine B assay; conditions: OVCAR-3, 48 h
[6] = test system: Hs-578T; experiment: Cytotoxicity against human Hs 578T cells assessed as growth inhibition after 48 hrs by sulforhodamine B assay
[7] = test system: SNB-19; experiment: Cytotoxicity against human SNB19 cells assessed as cell growth at 0.01 uM after 48 hrs by sulforhodamine B assay relative to control; conditions: SNB-19, 48 h, read-out: Activity
[8] = test system: SF-539; experiment: Cytotoxicity against human SF539 cells assessed as cell growth at 0.01 uM after 48 hrs by sulforhodamine B assay relative to control; conditions: SF-539, 48 h, read-out: Activity
[9] = test system: PC-3; experiment: Cytotoxicity against human PC3 cells assessed as cell growth at 0.01 uM after 48 hrs by sulforhodamine B assay relative to control; conditions: PC-3, 48 h, read-out: Activity
[10] = test system: DU-145; experiment: Cytotoxicity against human DU145 cells assessed as cell growth at 0.01 uM after 48 hrs by sulforhodamine B assay relative to control; conditions: DU-145, 48 h, read-out: Activity
[11] = test system: T47D; experiment: Cytotoxicity against human T47D cells assessed as cell growth at 0.01 uM after 48 hrs by sulforhodamine B assay relative to control; conditions: read-out: Activity
[12] = test system: NCI-H322M; experiment: Cytotoxicity against human NCI-H322M cells assessed as cell growth at 0.1 uM after 48 hrs by sulforhodamine B assay relative to control; conditions: read-out: Activity
[13] = test system: NCI-H522; experiment: Cytotoxicity against human NCI-H522 cells assessed as cell growth at 0.1 uM after 48 hrs by sulforhodamine B assay relative to control; conditions: NCI-H522, 48 h, read-out: Activity
[14] = test system: OVCAR-5; experiment: Cytotoxicity against human OVCAR5 cells assessed as cell growth at 0.1 uM after 48 hrs by sulforhodamine B assay relative to control; conditions: OVCAR-5, 48 h, read-out: Activity
[15] = test system: MCF7; experiment: Cytotoxicity against human MCF7 cells assessed as cell growth at 0.1 uM after 48 hrs by sulforhodamine B assay relative to control; conditions: MCF7, 48 h, read-out: Activity
[16] = test system: SR; experiment: Cytotoxicity against human SR cells assessed as cell growth at 1 uM after 48 hrs by sulforhodamine B assay relative to control; conditions: read-out: Activity
[17] = test system: HCC 2998; experiment: Cytotoxicity against human HCC2998 cells assessed as cell growth at 1 uM after 48 hrs by sulforhodamine B assay relative to control; conditions: HCC 2998, 48 h, read-out: Activity
[18] = test system: HT-29; experiment: Cytotoxicity against human HT-29 cells assessed as cell growth at 1 uM after 48 hrs by sulforhodamine B assay relative to control; conditions: HT-29, 48 h, read-out: Activity
[19] = test system: SW-620; experiment: Cytotoxicity against human SW620 cells assessed as cell growth at 1 uM after 48 hrs by sulforhodamine B assay relative to control; conditions: SW-620, 48 h, read-out: Activity
[20] = test system: SNB-19; experiment: Cytotoxicity against human SNB19 cells assessed as cell growth at 1 uM after 48 hrs by sulforhodamine B assay relative to control; conditions: SNB-19, 48 h, read-out: Activity
[21] = test system: M14; experiment: Cytotoxicity against human M14 cells assessed as cell growth at 1 uM after 48 hrs by sulforhodamine B assay relative to control; conditions: M14, 48 h, read-out: Activity
[22] = test system: 786-0; experiment: Cytotoxicity against human 786-0 cells assessed as cell growth at 1 uM after 48 hrs by sulforhodamine B assay relative to control; conditions: 786-0, 48 h, read-out: Activity
[23] = test system: SN12C; experiment: Cytotoxicity against human SN12C cells assessed as cell growth at 1 uM after 48 hrs by sulforhodamine B assay relative to control; conditions: read-out: Activity
[24] = test system: Hs-578T; experiment: Cytotoxicity against human Hs 578T cells assessed as cell growth at 1 uM after 48 hrs by sulforhodamine B assay relative to control; conditions: read-out: Activity
[25] = test system: HOP-62; experiment: Cytotoxicity against human HOP62 cells assessed as cell growth at 10 uM after 48 hrs by sulforhodamine B assay relative to control; conditions: HOP-62, 48 h, read-out: Activity
[26] = test system: HT-29; experiment: Cytotoxicity against human HT-29 cells assessed as cell growth at 10 uM after 48 hrs by sulforhodamine B assay relative to control; conditions: HT-29, 48 h, read-out: Activity
[27] = test system: U-251; experiment: Cytotoxicity against human U251 cells assessed as cell growth at 10 uM after 48 hrs by sulforhodamine B assay relative to control; conditions: U-251, 48 h, read-out: Activity
[28] = test system: NCI/ADR-RES; experiment: Cytotoxicity against human NCI/ADR-RES cells assessed as cell growth at 10 uM after 48 hrs by sulforhodamine B assay relative to control; conditions: read-out: Activity
[29] = test system: RXF 393; experiment: Cytotoxicity against human RXF393 cells assessed as cell growth at 10 uM after 48 hrs by sulforhodamine B assay relative to control; conditions: RXF 393, 48 h, read-out: Activity
[30] = test system: PC-3; experiment: Cytotoxicity against human PC3 cells assessed as cell growth at 10 uM after 48 hrs by sulforhodamine B assay relative to control; conditions: PC-3, 48 h, read-out: Activity
[31] = test system: MDA-MB-468; experiment: Cytotoxicity against human MDA-MB-468 cells assessed as cell growth at 10 uM after 48 hrs by sulforhodamine B assay relative to control; conditions: MDA-MB-468, 48 h, read-out: Activity
[32] = test system: HL-60(TB); experiment: Cytotoxicity against human HL-60(TB) cells assessed as cell growth at 100 uM after 48 hrs by sulforhodamine B assay relative to control; conditions: HL-60, 48 h, read-out: Activity
[33] = test system: SR; experiment: Cytotoxicity against human SR cells assessed as cell growth at 100 uM after 48 hrs by sulforhodamine B assay relative to control; conditions: read-out: Activity
[34] = test system: HCC 2998; experiment: Cytotoxicity against human HCC2998 cells assessed as cell growth at 100 uM after 48 hrs by sulforhodamine B assay relative to control; conditions: HCC 2998, 48 h, read-out: Activity
[35] = test system: HCT-15; experiment: Cytotoxicity against human HCT15 cells assessed as cell growth at 100 uM after 48 hrs by sulforhodamine B assay relative to control; conditions: HCT-15, 48 h, read-out: Activity
[36] = test system: SK-MEL-28; experiment: Cytotoxicity against human SK-MEL-28 cells assessed as cell growth at 100 uM after 48 hrs by sulforhodamine B assay relative to control; conditions: SK-MEL-28, 48 h, read-out: Activity
[37] = test system: OVCAR-5; experiment: Cytotoxicity against human OVCAR5 cells assessed as cell growth at 100 uM after 48 hrs by sulforhodamine B assay relative to control; conditions: OVCAR-5, 48 h, read-out: Activity

SMILES: COc1ccc(C(=O)/C=C/c2cc(-c3ccc(OC)c(OC)c3)n[nH]2)cc1OC
- GI50 [1]: 1.38 µM
- TGI [1]: 4.95 µM
- GI50 [2]: 2.09 µM
- TGI [2]: 9.82 µM
- CC50 ([2]; read-out: LC50 (the source's name)): > 100 µM
- GI50 [3]: 1.29 µM
- TGI [3]: 2.7 µM
- GI50 [4]: 3.13 µM
- TGI [4]: 53.8 µM
- GI50 [5]: 1.96 µM
- TGI [5]: 4.72 µM
- GI50 [6]: 3.76 µM
- TGI [6]: > 100 µM
- growth at 0.01 µM [7]: 91%
- growth at 0.01 µM [8]: 89%
- growth at 0.01 µM [9]: 99%
- growth at 0.01 µM [10]: 106%
- growth at 0.01 µM [11]: 82%
- growth at 0.1 µM [12]: 105%
- growth at 0.1 µM [13]: 94%
- growth at 0.1 µM [14]: 94%
- growth at 0.1 µM [15]: 94%
- growth at 1 µM [16]: 5%
- growth at 1 µM [17]: 95%
- growth at 1 µM [18]: 63%
- growth at 1 µM [19]: 66%
- growth at 1 µM [20]: 78%
- growth at 1 µM [21]: 92%
- growth at 1 µM [22]: 78%
- growth at 1 µM [23]: 85%
- growth at 1 µM [24]: 87%
- growth at 10 µM [25]: -25%
- growth at 10 µM [26]: -28%
- growth at 10 µM [27]: -85%
- growth at 10 µM [28]: 16%
- growth at 10 µM [29]: -84%
- growth at 10 µM [30]: 5%
- growth at 10 µM [31]: -80%
- growth at 100 µM [32]: 1%
- growth at 100 µM [33]: -17%
- growth at 100 µM [34]: -91%
- growth at 100 µM [35]: -10%
- growth at 100 µM [36]: -32%
- growth at 100 µM [37]: -41%
